# Target: T1, Kv7.2/7.3 (Homo sapiens, UniProt O43525+O43526)
# Assay: Kv7.2/7.3 FluxOR Potassium Ion Channel Assay (Invitrogen, F20015)
# Type: cell-based
# Details: not given
row,SMILES,EC50
1,CCOC(=O)Nc1ccc(NCc2ccc(F)cc2)cc1N [ezogabine],1.1 µM

# Target: T1, Kv7.2/7.3
# Assay: Kv7.2/7.3 Thallium Flux Assay
# Type: cell-based
# Design: host or cells: HEK cells, tetracycline-inducible expression
# Details: read-out: Kv7.2/7.3 Activity: EC50 of Kv7.2/Kv7.3 activation
# Outline: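 Tetracycline-induced (10 ng/mL) hKv7.2/7.3 cell line tested over eight concentrations, 0.014–30 μM, in 0.1% DMSO extracellular solution; FluxOR II thallium-sensitive dye read at Ex 475/Em 530 nm. After 15 sec baseline, thallium/potassium stimulus injected, endpoint at 90 sec; responses normalized to retigabine ([…] max), Hill fit gave EC50 and maximal response.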
row,SMILES,EC50
1,"CC(C)(O)c1ccc2nc(NC(=O)Cc3ccc(F)cc3F)n(C3(C)CCC3)c2c1 [Example 505, 2-(2,4-difluorophenyl)-N-(6-(2-hydroxypropan-2-yl)-1-(1-methylcyclobutyl)-1H-benzo[d]imidazol-2-yl)acetamide]",< 1 µM
2,COc1cc(C#N)cc2c1nc(NC(=O)CC(C)(C)C(F)(F)F)n2C1(C)CCC1 [Example 554],< 1 µM
3,"CC(C)(C)n1c(NC(=O)CC2(C(F)(F)F)CC2)nc2cc(F)cc(F)c21 [Example 531, N-(1-(tert-butyl)-5,7-difluoro-1H-benzo[d]imidazol-2-yl)-2-(1-(trifluoromethyl)cyclopropyl)acetamide]",< 1 µM
4,"CC(C)(C)n1c(NC(=O)CC(C)(C)C(F)(F)F)nc2cc(F)cc(F)c21 [Example 530, N-(1-(tert-butyl)-5,7-difluoro-1H-benzo[d]imidazol-2-yl)-4,4,4-trifluoro-3,3-dimethylbutanamide]",< 1 µM
5,"CC(C)(O)c1cc(F)c2nc(NC(=O)C3(CC(F)F)CC3)n(C3CCC3)c2c1 [Example 502, N-(1-cyclobutyl-4-fluoro-6-(2-hydroxypropan-2-yl)-1H-benzo[d]imidazol-2-yl)-1-(2,2-difluoroethyl)cyclopropane-1-carboxamide]",3 to 10 µM
6,"CC1(n2c(NC(=O)CC3CC(F)(F)C3(F)F)nc3ccc(F)c(C#N)c32)CCC1 (single isomer, unassigned) [Example 536, N-(7-cyano-6-fluoro-1-(1-methylcyclobutyl)-1H-benzo[d]imidazol-2-yl)-2-(2,2,3,3-tetrafluorocyclobutyl)acetamide]",< 1 µM
7,"CC1(n2c(NC(=O)CC3CC(F)(F)C3(F)F)nc3cc(F)cc(F)c32)CCC1 (single isomer, unassigned) [Example 523, N-(5,7-difluoro-1-(1-methylcyclobutyl)-1H-benzo[d]imidazol-2-yl)-2-(2,2,3,3-tetrafluorocyclobutyl)acetamide]",< 1 µM
8,"CC(C)(C)CC(=O)Nc1nc2cccc(OC(F)(F)F)c2n1C1CCC1 [Example 516, N-(1-cyclobutyl-7-(trifluoromethoxy)-1H-benzo[d]imidazol-2-yl)-3,3-dimethylbutanamide]",< 1 µM
9,"CC1(n2c(NC(=O)CC3CC(F)(F)C3(F)F)nc3c(F)cc(C#N)c(F)c32)CCC1 (single isomer, unassigned) [Example 542, N-(6-cyano-4,7-difluoro-1-(1-methylcyclobutyl)-1H-benzo[d]imidazol-2-yl)-2-(2,2,3,3-tetrafluorocyclobutyl)acetamide]",< 1 µM
10,"CC(C)(CC(=O)Nc1nc2ccc(C#N)cc2n1C1CCC1)c1ccccn1 [Example 518, N-(6-cyano-1-cyclobutyl-1H-benzo[d]imidazol-2-yl)-3-methyl-3-(pyridin-2-yl)butanamide]",1 to 3 µM
11,"CC(C)(C)n1c(NC(=O)CC2CC(F)(F)C2(F)F)nc2cc(F)c(F)cc21 (single isomer, unassigned) [Example 558, N-(1-(tert-butyl)-5,6-difluoro-1H-benzo[d]imidazol-2-yl)-2-(2,2,3,3-tetrafluorocyclobutyl)acetamide]",1 to 3 µM
12,"CC(C)(C)n1c(NC(=O)CC2CC(F)(F)C2(F)F)nc2cc(F)cc(F)c21 (single isomer, unassigned) [Example 532, N-(1-(tert-butyl)-5,7-difluoro-1H-benzo[d]imidazol-2-yl)-2-(2,2,3,3-tetrafluorocyclobutyl)acetamide]",< 1 µM
13,"CC1(n2c(NC(=O)CC3CC(F)(F)C3(F)F)nc3c(F)ccc(C#N)c32)CCC1 (single isomer, unassigned) [Example 548, N-(7-cyano-4-fluoro-1-(1-methylcyclobutyl)-1H-benzo[d]imidazol-2-yl)-2-(2,2,3,3-tetrafluorocyclobutyl)acetamide]",< 1 µM
14,"CC1(n2c(NC(=O)CC3CC(F)(F)C3(F)F)nc3c(F)cc(C#N)c(F)c32)CCC1 (single isomer, unassigned) [Example 504, N-(6-cyano-4,7-difluoro-1-(1-methylcyclobutyl)-1H-benzo[d]imidazol-2-yl)-2-(2,2,3,3-tetrafluorocyclobutyl)acetamide]",< 1 µM
15,"CC(C)(O)c1ccc2nc(NC(=O)CC3CC(F)(F)C3(F)F)n(C3(C)CCC3)c2c1 (stereo not shown) [Example 491, N-(6-(2-hydroxypropan-2-yl)-1-(1-methylcyclobutyl)-1H-benzo[d]imidazol-2-yl)-2-(2,2,3,3-tetrafluorocyclobutyl)acetamide]",< 1 µM

# Reference: US10851067B2, “Kv7 channel activators compositions and methods of use” (Knopp Biosciences LLC, priority 2018, dated 2020)
